According to the kinase profiling compilation of Christmann-Franck et al. (2016):

Assays:
Assay in all cases: KINOMEscan competition binding
Conditions in all cases: compound 10.0 µM
ACVR1 (human) = ACVR1 (human) (UniProt Q04771)
ADCK4 (human) = ADCK4 (human) (UniProt Q96D53)
BMP2K (human) = BMP2K (human) (UniProt Q9NSY1)
BTK (human) = BTK (human) (UniProt Q06187)
CDC2L2 (human) = CDC2L2 (human) (UniProt Q9UQ88)
CDC42BPA (human) = CDC42BPA (human) (UniProt Q5VT25)
CDK11B (human) = CDK11B (human) (UniProt P21127)
CDK3 (human) = CDK3 (human) (UniProt Q00526)
CDK4 CCND3 (human) = CDK4 CCND3 (human) (UniProt P11802+P30281)
CHEK2 (human) = CHEK2 (human) (UniProt O96017)
CIT (human) = CIT (human) (UniProt O14578)
DCLK3 (human) = DCLK3 (human) (UniProt Q9C098)
DMPK (human) = DMPK (human) (UniProt Q09013)
DYRK2 (human) = DYRK2 (human) (UniProt Q92630)
FGR (human) = FGR (human) (UniProt P09769)
GSK3A (human) = GSK3A (human) (UniProt P49840)
IRAK3 (human) = IRAK3 (human) (UniProt Q9Y616)
MAP3K4 (human) = MAP3K4 (human) (UniProt Q9Y6R4)
MAP3K9 (human) = MAP3K9 (human) (UniProt P80192)
MKNK1 (human) = MKNK1 (human) (UniProt Q9BUB5)
MST1R (human) = MST1R (human) (UniProt Q04912)
NEK2 (human) = NEK2 (human) (UniProt P51955)
PLK3 (human) = PLK3 (human) (UniProt Q9H4B4)
PRKAA1 (human) = PRKAA1 (human) (UniProt Q13131)
PRKCQ (human) = PRKCQ (human) (UniProt Q04759)
RIPK4 (human) = RIPK4 (human) (UniProt P57078)
ROCK2 (human) = ROCK2 (human) (UniProt O75116)
ROS1 (human) = ROS1 (human) (UniProt P08922)
RPS6KA3 KD1 (human) = RPS6KA3 KD1 (human) (UniProt P51812)
TAOK1 (human) = TAOK1 (human) (UniProt Q7L7X3)
TAOK2 (human) = TAOK2 (human) (UniProt Q9UL54)
TGFBR1 (human) = TGFBR1 (human) (UniProt P36897)
TNIK (human) = TNIK (human) (UniProt Q9UKE5)
TXK (human) = TXK (human) (UniProt P42681)
CSNK1G1 (human) = CSNK1G1 (human) (UniProt Q9HCP0)
CSNK1G3 (human) = CSNK1G3 (human) (UniProt Q9Y6M4)
EGFR (human) = EGFR (human) (UniProt P00533)
[1] = tested on: EGFR (human), P00533 [T790M]
[2] = tested on: FLT3 (human), P36888 [ITD]
NTRK2 (human) = NTRK2 (human) (UniProt Q16620)
[3] = tested on: PIK3CA (human), P42336 [E545A]
Sequence of PIK3CA (human), P42336 [E545A] (P42336 whole entry E545A, looked up): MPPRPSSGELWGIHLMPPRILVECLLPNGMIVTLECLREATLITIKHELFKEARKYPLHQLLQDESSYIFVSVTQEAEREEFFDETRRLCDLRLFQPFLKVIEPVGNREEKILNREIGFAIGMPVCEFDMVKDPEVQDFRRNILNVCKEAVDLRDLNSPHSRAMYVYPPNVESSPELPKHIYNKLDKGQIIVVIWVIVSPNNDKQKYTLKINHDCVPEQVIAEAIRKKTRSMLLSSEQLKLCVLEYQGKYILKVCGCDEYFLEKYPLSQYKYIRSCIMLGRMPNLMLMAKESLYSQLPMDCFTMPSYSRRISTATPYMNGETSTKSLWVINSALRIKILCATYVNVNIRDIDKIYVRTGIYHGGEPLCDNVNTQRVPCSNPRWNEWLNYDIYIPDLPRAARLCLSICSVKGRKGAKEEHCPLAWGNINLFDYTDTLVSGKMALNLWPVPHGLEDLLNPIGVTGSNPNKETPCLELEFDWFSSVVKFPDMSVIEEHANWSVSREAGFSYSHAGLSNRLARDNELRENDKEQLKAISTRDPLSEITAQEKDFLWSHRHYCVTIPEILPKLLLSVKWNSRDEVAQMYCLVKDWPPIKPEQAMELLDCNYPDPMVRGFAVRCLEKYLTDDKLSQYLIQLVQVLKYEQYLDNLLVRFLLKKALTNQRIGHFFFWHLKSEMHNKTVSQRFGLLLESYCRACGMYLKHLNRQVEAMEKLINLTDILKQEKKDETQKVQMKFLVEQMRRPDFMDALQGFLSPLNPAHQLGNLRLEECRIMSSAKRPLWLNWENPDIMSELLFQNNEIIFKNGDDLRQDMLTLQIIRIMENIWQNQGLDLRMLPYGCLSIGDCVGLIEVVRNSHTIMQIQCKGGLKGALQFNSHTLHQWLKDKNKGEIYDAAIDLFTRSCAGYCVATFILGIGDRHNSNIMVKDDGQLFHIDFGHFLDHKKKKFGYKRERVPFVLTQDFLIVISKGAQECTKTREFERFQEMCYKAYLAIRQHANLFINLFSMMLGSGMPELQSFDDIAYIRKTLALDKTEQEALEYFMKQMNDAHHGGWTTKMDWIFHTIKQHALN

Sequence of ROS1 (human) (P08922 whole entry, looked up): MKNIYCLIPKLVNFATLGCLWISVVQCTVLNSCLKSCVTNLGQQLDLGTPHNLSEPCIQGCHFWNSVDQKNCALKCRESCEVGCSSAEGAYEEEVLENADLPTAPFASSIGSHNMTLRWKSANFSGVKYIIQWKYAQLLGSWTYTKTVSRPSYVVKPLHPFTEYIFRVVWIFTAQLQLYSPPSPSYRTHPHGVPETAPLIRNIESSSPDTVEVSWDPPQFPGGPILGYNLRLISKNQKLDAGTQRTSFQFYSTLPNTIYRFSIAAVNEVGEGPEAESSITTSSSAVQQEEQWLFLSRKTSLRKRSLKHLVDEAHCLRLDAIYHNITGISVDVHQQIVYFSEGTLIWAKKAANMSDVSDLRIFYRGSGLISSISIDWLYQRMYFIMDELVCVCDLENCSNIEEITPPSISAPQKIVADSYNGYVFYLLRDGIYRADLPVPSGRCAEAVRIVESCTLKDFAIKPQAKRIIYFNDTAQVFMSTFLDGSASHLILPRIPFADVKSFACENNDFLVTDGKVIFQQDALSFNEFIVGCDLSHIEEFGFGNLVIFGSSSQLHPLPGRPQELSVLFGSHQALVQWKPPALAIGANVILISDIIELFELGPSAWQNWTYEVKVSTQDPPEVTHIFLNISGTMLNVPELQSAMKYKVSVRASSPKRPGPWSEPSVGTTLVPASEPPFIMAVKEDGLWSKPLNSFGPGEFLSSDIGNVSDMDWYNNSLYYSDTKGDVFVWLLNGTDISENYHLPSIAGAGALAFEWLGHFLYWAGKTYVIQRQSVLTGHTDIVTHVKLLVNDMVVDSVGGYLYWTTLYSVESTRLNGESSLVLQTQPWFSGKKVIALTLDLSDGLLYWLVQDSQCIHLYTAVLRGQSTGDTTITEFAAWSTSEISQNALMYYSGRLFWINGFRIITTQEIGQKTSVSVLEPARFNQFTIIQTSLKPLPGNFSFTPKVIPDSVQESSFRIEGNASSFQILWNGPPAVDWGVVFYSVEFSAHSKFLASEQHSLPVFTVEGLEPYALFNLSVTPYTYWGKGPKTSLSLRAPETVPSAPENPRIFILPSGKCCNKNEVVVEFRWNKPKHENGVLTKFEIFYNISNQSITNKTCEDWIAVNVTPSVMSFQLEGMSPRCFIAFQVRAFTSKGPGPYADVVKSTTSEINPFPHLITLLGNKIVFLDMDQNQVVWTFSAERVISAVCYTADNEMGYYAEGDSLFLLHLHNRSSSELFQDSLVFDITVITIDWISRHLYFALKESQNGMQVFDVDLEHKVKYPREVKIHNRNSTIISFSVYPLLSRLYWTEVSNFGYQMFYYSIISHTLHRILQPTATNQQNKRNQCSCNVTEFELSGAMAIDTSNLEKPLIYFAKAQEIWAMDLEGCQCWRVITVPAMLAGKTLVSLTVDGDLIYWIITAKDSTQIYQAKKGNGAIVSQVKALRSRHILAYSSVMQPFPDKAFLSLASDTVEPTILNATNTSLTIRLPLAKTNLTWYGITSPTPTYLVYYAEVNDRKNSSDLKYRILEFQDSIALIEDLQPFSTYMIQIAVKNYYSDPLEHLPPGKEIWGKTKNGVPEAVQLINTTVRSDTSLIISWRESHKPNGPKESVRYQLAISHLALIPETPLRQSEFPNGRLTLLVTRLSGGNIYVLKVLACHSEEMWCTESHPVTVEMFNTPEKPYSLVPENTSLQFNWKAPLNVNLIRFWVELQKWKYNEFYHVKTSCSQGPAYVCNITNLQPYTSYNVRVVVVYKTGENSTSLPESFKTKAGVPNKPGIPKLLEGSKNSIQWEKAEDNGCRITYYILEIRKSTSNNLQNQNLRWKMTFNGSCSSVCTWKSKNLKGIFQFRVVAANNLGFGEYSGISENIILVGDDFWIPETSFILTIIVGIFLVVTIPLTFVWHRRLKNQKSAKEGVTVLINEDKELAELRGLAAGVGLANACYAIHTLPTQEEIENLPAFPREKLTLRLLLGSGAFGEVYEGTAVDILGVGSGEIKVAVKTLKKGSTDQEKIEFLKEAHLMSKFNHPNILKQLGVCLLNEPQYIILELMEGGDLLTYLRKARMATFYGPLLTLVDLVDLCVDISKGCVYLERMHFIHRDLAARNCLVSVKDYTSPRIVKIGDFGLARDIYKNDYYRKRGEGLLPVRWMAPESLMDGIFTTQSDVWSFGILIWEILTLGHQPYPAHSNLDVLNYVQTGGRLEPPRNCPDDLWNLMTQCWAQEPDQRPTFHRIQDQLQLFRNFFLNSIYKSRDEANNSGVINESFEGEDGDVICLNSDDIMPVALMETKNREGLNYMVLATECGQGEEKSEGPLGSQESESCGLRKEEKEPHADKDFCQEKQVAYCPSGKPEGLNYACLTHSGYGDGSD
Sequence of MAP3K4 (human) (Q9Y6R4 whole entry, looked up): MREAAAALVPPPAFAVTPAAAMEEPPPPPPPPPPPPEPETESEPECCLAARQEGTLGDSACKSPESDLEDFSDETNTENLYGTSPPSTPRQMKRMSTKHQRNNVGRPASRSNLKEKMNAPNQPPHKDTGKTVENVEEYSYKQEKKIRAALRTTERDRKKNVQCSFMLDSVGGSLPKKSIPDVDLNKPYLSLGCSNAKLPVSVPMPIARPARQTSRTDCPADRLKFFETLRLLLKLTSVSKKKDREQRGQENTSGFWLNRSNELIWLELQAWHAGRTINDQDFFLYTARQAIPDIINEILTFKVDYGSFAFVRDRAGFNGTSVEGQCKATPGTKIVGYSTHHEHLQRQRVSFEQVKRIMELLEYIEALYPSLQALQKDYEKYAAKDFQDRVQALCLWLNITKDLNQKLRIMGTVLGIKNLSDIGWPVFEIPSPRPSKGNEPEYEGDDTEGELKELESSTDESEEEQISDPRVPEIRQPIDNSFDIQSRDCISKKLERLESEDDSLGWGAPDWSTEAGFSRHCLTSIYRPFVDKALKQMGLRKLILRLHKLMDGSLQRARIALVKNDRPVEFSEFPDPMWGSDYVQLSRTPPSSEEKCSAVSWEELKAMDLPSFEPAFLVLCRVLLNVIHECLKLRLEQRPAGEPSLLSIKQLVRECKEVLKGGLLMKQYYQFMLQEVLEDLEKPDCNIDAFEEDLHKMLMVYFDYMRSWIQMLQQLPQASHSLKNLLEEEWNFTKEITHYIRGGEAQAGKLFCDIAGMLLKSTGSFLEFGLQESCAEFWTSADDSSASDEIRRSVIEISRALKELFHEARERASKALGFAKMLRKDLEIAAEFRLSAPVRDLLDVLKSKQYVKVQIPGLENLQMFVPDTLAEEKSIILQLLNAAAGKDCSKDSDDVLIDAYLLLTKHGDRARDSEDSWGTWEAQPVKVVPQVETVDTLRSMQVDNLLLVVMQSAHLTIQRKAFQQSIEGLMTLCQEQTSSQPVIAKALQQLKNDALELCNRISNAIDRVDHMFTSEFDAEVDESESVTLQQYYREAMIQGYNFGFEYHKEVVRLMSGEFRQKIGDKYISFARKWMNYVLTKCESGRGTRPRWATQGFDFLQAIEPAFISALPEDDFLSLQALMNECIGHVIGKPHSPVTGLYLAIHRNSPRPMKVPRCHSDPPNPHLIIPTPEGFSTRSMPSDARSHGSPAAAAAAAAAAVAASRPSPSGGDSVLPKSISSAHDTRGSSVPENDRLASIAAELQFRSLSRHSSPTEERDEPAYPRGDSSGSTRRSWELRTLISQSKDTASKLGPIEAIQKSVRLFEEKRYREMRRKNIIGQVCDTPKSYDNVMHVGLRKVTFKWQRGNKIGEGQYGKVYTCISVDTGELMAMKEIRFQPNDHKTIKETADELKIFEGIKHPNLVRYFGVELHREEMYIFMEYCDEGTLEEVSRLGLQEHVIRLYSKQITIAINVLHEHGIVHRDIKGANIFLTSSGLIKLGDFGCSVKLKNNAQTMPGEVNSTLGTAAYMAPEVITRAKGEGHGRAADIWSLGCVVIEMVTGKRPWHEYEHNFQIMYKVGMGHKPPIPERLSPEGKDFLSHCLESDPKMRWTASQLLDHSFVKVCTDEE

SMILES: CC(C)n1nc(-c2cc3cc(O)ccc3[nH]2)c2c(N)ncnc21
- kinase still bound, per cent of control (ACVR1 (human)): 0.1%
- kinase still bound, per cent of control (ADCK4 (human)): 13%
- kinase still bound, per cent of control (BMP2K (human)): 33%
- kinase still bound, per cent of control (BTK (human)): 22%
- per cent of control (CDC2L2 (human)): 100%
- kinase still bound, per cent of control (CDC42BPA (human)): 74%
- per cent of control (CDK11B (human)): 100%
- per cent of control (CDK3 (human)): 100%
- per cent of control (CDK4 CCND3 (human)): 57%
- kinase still bound, per cent of control (CHEK2 (human)): 19%
- kinase still bound, per cent of control (CIT (human)): 66%
- kinase still bound, per cent of control (DCLK3 (human)): 10%
- kinase still bound, per cent of control (DMPK (human)): 0.55%
- kinase still bound, per cent of control (DYRK2 (human)): 1.4%
- kinase still bound, per cent of control (FGR (human)): 5.6%
- kinase still bound, per cent of control (GSK3A (human)): 74%
- kinase still bound, per cent of control (IRAK3 (human)): 12%
- kinase still bound, per cent of control (MAP3K4 (human)): 85%
- kinase still bound, per cent of control (MAP3K9 (human)): 32%
- kinase still bound, per cent of control (MKNK1 (human)): 19%
- kinase still bound, per cent of control (MST1R (human)): 89%
- kinase still bound, per cent of control (NEK2 (human)): 75%
- kinase still bound, per cent of control (PLK3 (human)): 33%
- kinase still bound, per cent of control (PRKAA1 (human)): 43%
- kinase still bound, per cent of control (PRKCQ (human)): 58%
- kinase still bound, per cent of control (RIPK4 (human)): 6.3%
- kinase still bound, per cent of control (ROCK2 (human)): 60%
- kinase still bound, per cent of control (ROS1 (human)): 100%
- kinase still bound, per cent of control (RPS6KA3 KD1 (human)): 0.35%
- kinase still bound, per cent of control (TAOK1 (human)): 0.2%
- kinase still bound, per cent of control (TAOK2 (human)): 1.2%
- kinase still bound, per cent of control (TGFBR1 (human)): 1.1%
- kinase still bound, per cent of control (TNIK (human)): 2.4%
- kinase still bound, per cent of control (TXK (human)): 3%

SMILES: CCC(=O)N1CCN(c2ccc(-n3c(=O)ccc4cnc5ccc(-c6cnc7ccccc7c6)cc5c43)cc2C(F)(F)F)CC1
- kinase still bound, per cent of control (ACVR1 (human)): 28%
- kinase still bound, per cent of control (ADCK4 (human)): 15%
- kinase still bound, per cent of control (BMP2K (human)): 100%
- per cent of control (CDC2L2 (human)): 100%
- kinase still bound, per cent of control (CDC42BPA (human)): 0.65%
- per cent of control (CDK11B (human)): 97%
- per cent of control (CDK3 (human)): 100%
- per cent of control (CDK4 CCND3 (human)): 87%
- kinase still bound, per cent of control (CHEK2 (human)): 100%
- kinase still bound, per cent of control (CIT (human)): 59%
- kinase still bound, per cent of control (CSNK1G1 (human)): 100%
- kinase still bound, per cent of control (CSNK1G3 (human)): 100%
- kinase still bound, per cent of control (DCLK3 (human)): 97%
- kinase still bound, per cent of control (DMPK (human)): 77%
- kinase still bound, per cent of control (DYRK2 (human)): 86%
- kinase still bound, per cent of control (EGFR (human)): 85%
- kinase still bound, per cent of control [1]: 100%
- kinase still bound, per cent of control (FGR (human)): 78%
- kinase still bound, per cent of control [2]: 29%
- kinase still bound, per cent of control (GSK3A (human)): 93%
- kinase still bound, per cent of control (IRAK3 (human)): 27%
- kinase still bound, per cent of control (MAP3K4 (human)): 47%
- kinase still bound, per cent of control (MAP3K9 (human)): 84%
- kinase still bound, per cent of control (MKNK1 (human)): 44%
- kinase still bound, per cent of control (MST1R (human)): 55%
- kinase still bound, per cent of control (NEK2 (human)): 90%
- kinase still bound, per cent of control (NTRK2 (human)): 81%
- kinase still bound, per cent of control [3]: 1%
- kinase still bound, per cent of control (PLK3 (human)): 87%
- kinase still bound, per cent of control (PRKAA1 (human)): 91%
- kinase still bound, per cent of control (PRKCQ (human)): 91%
- kinase still bound, per cent of control (RIPK4 (human)): 100%
- kinase still bound, per cent of control (ROCK2 (human)): 50%
- kinase still bound, per cent of control (ROS1 (human)): 71%
- kinase still bound, per cent of control (RPS6KA3 KD1 (human)): 38%
- kinase still bound, per cent of control (TAOK1 (human)): 58%
- kinase still bound, per cent of control (TAOK2 (human)): 84%
- kinase still bound, per cent of control (TGFBR1 (human)): 70%
- kinase still bound, per cent of control (TNIK (human)): 39%
- kinase still bound, per cent of control (TXK (human)): 54%

SMILES: COC(=O)Nc1ccc(-c2nc(N3CCOCC3)c3cnn(C4CCN(C(=O)OC)CC4)c3n2)cc1
- kinase still bound, per cent of control (ACVR1 (human)): 100%
- kinase still bound, per cent of control (ADCK4 (human)): 73%
- kinase still bound, per cent of control (BMP2K (human)): 99%
- kinase still bound, per cent of control (BTK (human)): 99%
- per cent of control (CDC2L2 (human)): 100%
- kinase still bound, per cent of control (CDC42BPA (human)): 100%
- per cent of control (CDK11B (human)): 100%
- per cent of control (CDK3 (human)): 100%
- per cent of control (CDK4 CCND3 (human)): 100%
- kinase still bound, per cent of control (CHEK2 (human)): 100%
- kinase still bound, per cent of control (CIT (human)): 98%
- kinase still bound, per cent of control (CSNK1G1 (human)): 100%
- kinase still bound, per cent of control (CSNK1G3 (human)): 100%
- kinase still bound, per cent of control (DCLK3 (human)): 92%
- kinase still bound, per cent of control (DMPK (human)): 100%
- kinase still bound, per cent of control (DYRK2 (human)): 82%
- kinase still bound, per cent of control (EGFR (human)): 100%
- kinase still bound, per cent of control [1]: 100%
- kinase still bound, per cent of control (FGR (human)): 96%
- kinase still bound, per cent of control [2]: 100%
- kinase still bound, per cent of control (GSK3A (human)): 100%
- kinase still bound, per cent of control (IRAK3 (human)): 79%
- kinase still bound, per cent of control (MAP3K4 (human)): 100%
- kinase still bound, per cent of control (MAP3K9 (human)): 100%
- kinase still bound, per cent of control (MKNK1 (human)): 37%
- kinase still bound, per cent of control (MST1R (human)): 82%
- kinase still bound, per cent of control (NEK2 (human)): 100%
- kinase still bound, per cent of control (NTRK2 (human)): 100%
- kinase still bound, per cent of control [3]: 5.5%
- kinase still bound, per cent of control (PLK3 (human)): 93%
- kinase still bound, per cent of control (PRKAA1 (human)): 100%
- kinase still bound, per cent of control (PRKCQ (human)): 99%
- kinase still bound, per cent of control (RIPK4 (human)): 90%
- kinase still bound, per cent of control (ROCK2 (human)): 79%
- kinase still bound, per cent of control (ROS1 (human)): 76%
- kinase still bound, per cent of control (RPS6KA3 KD1 (human)): 76%
- kinase still bound, per cent of control (TAOK1 (human)): 83%
- kinase still bound, per cent of control (TAOK2 (human)): 73%
- kinase still bound, per cent of control (TGFBR1 (human)): 100%
- kinase still bound, per cent of control (TNIK (human)): 95%
- kinase still bound, per cent of control (TXK (human)): 92%

SMILES: COc1ccc(-c2ccc3c(N4CCOCC4)nc(N4C[C@@H](C)O[C@@H](C)C4)nc3n2)cc1CO
- kinase still bound, per cent of control (ACVR1 (human)): 100%
- kinase still bound, per cent of control (ADCK4 (human)): 87%
- kinase still bound, per cent of control (BMP2K (human)): 98%
- kinase still bound, per cent of control (BTK (human)): 100%
- per cent of control (CDC2L2 (human)): 100%
- kinase still bound, per cent of control (CDC42BPA (human)): 92%
- per cent of control (CDK11B (human)): 100%
- per cent of control (CDK3 (human)): 100%
- per cent of control (CDK4 CCND3 (human)): 80%
- kinase still bound, per cent of control (CHEK2 (human)): 100%
- kinase still bound, per cent of control (CIT (human)): 96%
- kinase still bound, per cent of control (CSNK1G1 (human)): 94%
- kinase still bound, per cent of control (CSNK1G3 (human)): 92%
- kinase still bound, per cent of control (DCLK3 (human)): 100%
- kinase still bound, per cent of control (DMPK (human)): 86%
- kinase still bound, per cent of control (DYRK2 (human)): 63%
- kinase still bound, per cent of control (EGFR (human)): 100%
- kinase still bound, per cent of control [1]: 100%
- kinase still bound, per cent of control (FGR (human)): 100%
- kinase still bound, per cent of control [2]: 100%
- kinase still bound, per cent of control (GSK3A (human)): 100%
- kinase still bound, per cent of control (IRAK3 (human)): 100%
- kinase still bound, per cent of control (MAP3K4 (human)): 100%
- kinase still bound, per cent of control (MAP3K9 (human)): 88%
- kinase still bound, per cent of control (MKNK1 (human)): 36%
- kinase still bound, per cent of control (MST1R (human)): 99%
- kinase still bound, per cent of control (NEK2 (human)): 100%
- kinase still bound, per cent of control (NTRK2 (human)): 73%
- kinase still bound, per cent of control [3]: 2.4%
- kinase still bound, per cent of control (PLK3 (human)): 92%
- kinase still bound, per cent of control (PRKAA1 (human)): 97%
- kinase still bound, per cent of control (PRKCQ (human)): 100%
- kinase still bound, per cent of control (RIPK4 (human)): 71%
- kinase still bound, per cent of control (ROCK2 (human)): 21%
- kinase still bound, per cent of control (ROS1 (human)): 100%
- kinase still bound, per cent of control (RPS6KA3 KD1 (human)): 99%
- kinase still bound, per cent of control (TAOK1 (human)): 83%
- kinase still bound, per cent of control (TAOK2 (human)): 76%
- kinase still bound, per cent of control (TGFBR1 (human)): 100%
- kinase still bound, per cent of control (TNIK (human)): 100%
- kinase still bound, per cent of control (TXK (human)): 100%
